Key:
tyrosinase = assay: Inhibition of tyrosinase activity; type: biochemical, mushrooms; settings: 0.2 wt %; L-tyrosine substrate
Description: Tyrosinase is an enzyme which facilitates oxidation of a substance called “tyrosine” in vivo and aids in production of melanin. Tyrosinase was isolated from mushrooms and purified, and was obtained from Sigma Aldrich Corp. A 0.1 mg/mL solution of L-tyrosine as a substrate in a 0.05 M sodium phosphate buffer solution (pH 6.8) was prepared. […] The test tube containing the reaction solution was quenched in ice to stop the reaction and transmissivity at a wavelength of 475 nm was measured using a spectrophotometer. A group treated with 0.5 mL of a buffer solution, instead of the Pleurotus ferulae fruiting body extract, the Pleurotus ferulae mycelium extract or the Pleurotus ferulae mycelium culture was used as a control group, and arbutin, a well-known whitening agent, was used as a positive control group. In addition, inhibition of tyrosinase activity by the respective samples were calculated in accordance with the following Equation 3. Inhibition of tyrosinase activity (%)=100−[(absorbance of reference group/absorbance of control group)]×100 Equation 3

B16F1 melanin cells = assay: Inhibition of melanin synthesis in B16F1 melanin cells; type: cell-based, mice; settings: 0.2 wt %; B16F1, 72 hours
Description: B16F1 melanocytes used for the present test example were cell lines derived from mice, which secrete a black pigment called “melanin”. The effect on inhibition of melanin synthesis of B16F1 melanin cells was measured as follows. […] After culturing for 72 hours, the cells were removed from trypsin-EDTA, counted and collected by centrifugation. Melanin in cells was assayed using a slightly modified version of Lotan's method (R Lotan and D Lotan, Cancer Res, 40: 3345-3350, 1980). Cell pellets were washed with PBS once and homogenized, 1 mL of a buffer solution (50 mM sodium phosphate, pH 6.8, 1% Triton X-100, 2 mM PMSF) was added to the cells, and the cells were crushed by vortex for 5 minutes. Melanin extracted by addition of 1N NaOH (10% DMSO) to a cell residue obtained by centrifugation (3,000 rpm, 10 minutes) was dissolved, absorbance of melanin at 405 nm was measured using a microplate reader, melanin was assayed, and inhibition of melanin production (%) of the sample was measured. In addition, a group not treated with the Pleurotus ferulae fruiting body extract, the Pleurotus ferulae mycelium extract or the Pleurotus ferulae mycelium culture was used as a control group, arbutin well-known as a whitening agent was used as a positive control group, and inhibition of melanin synthesis (%) by B16F1 melanin cells was calculated in accordance with Equation 4. […]

[1] = Antioxidative effect, NBT method (xanthine/xanthine oxidase); type: biochemical; settings: sample 0.1 wt %
Description: In accordance with the NBT method, active oxygen is produced by xanthine and xanthine oxidase, and absorbance at a wavelength of 560 nm of a blue substance produced upon reaction between the active oxygen and nitro blue tetrazolium (NBT) is measured. In the present test example, an active oxygen scavenge rate was measured in accordance with the following method. In addition, BHT, a well-known antioxidant, was used as a positive control group.
2.4 mL of 0.05M sodium carbonate (Na2CO3), 0.1 mL of a 3 mM xanthine solution, 0.1 mL of a 3 mM EDTA solution, 0.1 mL of a BSA solution and 0.1 mL of a 0.72 mM NBT solution were added to vials, 0.025, 0.05, 0.1 and 0.25% by weight of sample solutions were added respectively thereto, followed by allowing to stand at 25° C. for 10 minutes. After standing, 0.1 mL of a xanthine oxidase solution was added to the each solution which was then rapidly stirred and cultured at 25° C. for 20 minutes. 0.1 mL of a 6 mM copper chloride (CuCl2) solution was added to the culture solution to stop the reaction. Absorbance (St) at 560 nm was measured. […] Absorbance (Bt) was measured in the same manner as above. Absorbance (Bo) of the blank of the sample solution was measured in the same manner as above using distilled water instead of the xanthine oxidase solution. In addition, active oxygen scavenge rate (%) was calculated by the following Equation 1. […]

[2] = Antioxidative effect, DPPH method; type: biochemical; settings: sample 0.1 wt %
Description: The DPPH method measures free radical scavenge activity based on reduction power using a free radical, called “DPPH (2,2-di(4-tert-octylphenyl)-1-picrylhydrazyl)”. In the present test example, decrease in absorbance caused by reduction of DPPH by a test substance was compared with an absorbance of a blank test solution, and free radical scavenge rate at a wavelength of 560 nm was measured. Measurement was performed as follows. In addition, BHT, a well-known antioxidant, was used as a positive control group.
0.025, 0.05, 0.1 and 0.25% by weight of different concentrations of the Pleurotus ferulae fruiting body extracts, the Pleurotus ferulae mycelium extracts and the Pleurotus ferulae mycelium cultures were prepared and pipetted into on 96-well plates, and DPPH prepared from a 100 μM methanol solution was added thereto such that the total volume of the solution reached 200 μl. The solution was allowed to stand at 37° C. for 30 minutes, absorbance (St) at 560 nm of the solution was measured and free radical scavenge activity (%) was calculated using the following Equation 2.
Free radical scavenge activity (%)=[…]×100 Equation 2 […]

[3] = test system: Human keratinocytes HaCaT cell line; assay: Scavenging of active oxygen in cells after UVB (DCFH-DA); type: cell-based; settings: 0.01 wt %, UVB 20 mJ/cm^2
Description: A cell line used for the present test example was a Human keratinocytes HaCaT cell line obtained from Dr. Fusenig in the German Cancer Research Center. The cell line was seeded at a density of 2.0×10^4 cells per well into 96-well black plates for fluorescent measurement and cultured in DMEM (Dulbecco's Modified Eagle's Medium, FBS 10%, Gibco, USA) media containing penicillin and streptomycin at 37° C. in an atmosphere containing 5% CO2 for one day. […] Then, after 100 μl of different concentrates of HCSS was added to the test samples, fluorescence of DCF (dichlorofluorescein) initially oxidized with active oxygen was measured using a fluorescence plate reader (Ex: 485 nm, Em: 530 nm). Then, the samples were irradiated with UVB (20 mJ/cm^2), treated with 0.005, 0.01 and 0.02% by weight of the Pleurotus ferulae fruiting body extract, the Pleurotus ferulae mycelium extract and the Pleurotus ferulae mycelium culture and then measured for fluorescence using the fluorescence plate reader (Ex: 485 nm, Em: 530 nm). At this time, epigallocatechin gallate (EGCG) known to have potent antioxidative effects was used as a positive control group.

[4] = test system: matrix metalloproteinase (MMP-1); assay: Repression of MMP-1 after ultraviolet irradiation (ELISA); type: cell-based; settings: 0.02 wt %; human dermal fibroblasts, UVA 6.3 J/cm^2, 24 hours
Description: After UV irradiation and addition of samples (Pleurotus ferulae fruiting body extract, Pleurotus ferulae mycelium extract or Pleurotus ferulae mycelium culture, retinol), enzyme-linked immunosorbent assay (ELISA) was carried out to measure concentration of matrix metalloproteinase (MMP-1). Human dermal fibroblasts were irradiated with UVA at an energy of 6.3 J/cm^2 in a UV chamber, and conditions of the dose of ultraviolet radiation and culture time which maximize expression of matrix metalloproteinase (MMP-1) in fibroblasts were established through preliminary testing. A negative control group was wrapped with a foil and exposed to UVA environment for the same time. Here, UVA dose was measured using a UV radiometer. The cells during irradiation of UVA were cultured in the medium previously used. After UVA irradiation, the cells were cultured in a fresh medium containing samples for 24 hours and the medium were coated on 96-well plates. […] The cells were reacted with anti-mouse IgG (whole mouse, alkaline phosphatase conjugated) as a secondary antibody for about 60 minutes, and an alkaline phosphatase substrate solution (1 mg/mL ρ-nitrophenyl phosphate in diethanolamine buffer solution) at room temperature for 30 minutes, and absorbance at 405 nm was measured using a microplate reader. […]

type 1 procollagen = assay: Promotion of type 1 procollagen biosynthesis in fibroblasts; type: cell-based; settings: 0.001 wt %; human dermal fibroblasts, 24 hours
Description: Human dermal fibroblasts isolated from infant epidermal tissues were obtained from Modern Tissue Technology (MTT, Korea) and cultured at 1×10^4 cell/cm2 in a DMEM/F-12 (3:1) medium containing 10% fetal bovine serum (FBS). The human dermal fibroblasts grown to about a confluence of 80% were sub-cultured at a split ratio of 1:3 four times and were then used for the testing.
For the test to measure the amount of procollagen, fibroblasts were cultured to a confluence of 90% or more on a 48-well plate, the Pleurotus ferulae fruiting body extract, the Pleurotus ferulae mycelium […], and after 24 hours, the amount of procollagen released in the medium was measured using a procollagen type-1C-peptide EIA kit (MK101, Takara, Japan). In addition, TGF-β was used as a positive control group.

For `OC[C@H]1O[C@@H](Oc2ccc(O)cc2)[C@H](O)[C@@H](O)[C@@H]1O` [Arbutin, arbutin], the “Inhibition of tyrosinase activity (%)” value (tyrosinase) was 54% and the “Inhibition of melanin synthesis (%)” value (B16F1 melanin cells) was 55%.

For `Cc1cc(C(C)(C)C)c(O)c(C(C)(C)C)c1` [BHT], the “Active oxygen scavenge rate (antioxidative effect, %)” value [1] was 89% and the “Free radical scavenge rate (antioxidative effect, %)” value [2] was 85%.

With `O=C(O[C@@H]1Cc2c(O)cc(O)cc2O[C@@H]1c1cc(O)c(O)c(O)c1)c1cc(O)c(O)c(O)c1` [EGCG, epigallocatechin gallate] the “Effect of scavenging active oxygen (%)” value [3] was 45%.

In the case of `CC1=C(/C=C/C(C)=C/C=C/C(C)=C/CO)C(C)(C)CCC1` [Retinol, retinol], the “Repression of MMP-1 (%)” value [4] is reported as 36%.

With TGF-β the “Promotion of procollagen biosynthesis (%)” value (type 1 procollagen) was 125%.
